Source: patent US5770382A, “Tricyclic retinoids, methods for their production and use” (Ligand Pharmaceuticals, Inc., priority 1995, dated 1998)

Tests used:
Format in all cases: cell-based
RXRα = target: T1, RXRα (Homo sapiens, UniProt P19793); test: Co-transfection assay, RXRα agonist activity; settings: CV-1 cells, 40 hours; read-out: RXRα Pot (potency, EC50)
T1 construct: expressed in transfected cells; host or cells: CV-1 (African green monkey kidney fibroblasts)
T1 sequence (P19793 1-462): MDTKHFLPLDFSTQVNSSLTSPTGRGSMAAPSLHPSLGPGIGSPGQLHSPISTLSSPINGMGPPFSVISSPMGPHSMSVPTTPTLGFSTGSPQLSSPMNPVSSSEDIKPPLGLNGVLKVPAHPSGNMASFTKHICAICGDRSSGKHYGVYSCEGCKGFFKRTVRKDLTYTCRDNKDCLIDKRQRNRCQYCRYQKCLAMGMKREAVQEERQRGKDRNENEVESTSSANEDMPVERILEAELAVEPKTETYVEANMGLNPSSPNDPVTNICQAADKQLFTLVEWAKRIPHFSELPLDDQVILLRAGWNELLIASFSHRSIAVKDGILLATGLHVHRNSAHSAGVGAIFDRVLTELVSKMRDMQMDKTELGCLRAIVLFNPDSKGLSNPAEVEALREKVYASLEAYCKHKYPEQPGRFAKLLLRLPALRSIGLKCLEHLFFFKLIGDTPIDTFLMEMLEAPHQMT

RARα = target: T2, RARα (Homo sapiens, UniProt P10276); test: Co-transfection assay, RARα agonist activity; settings: CV-1 cells, 40 hours; read-out: RARα Pot (potency, EC50)
T2 construct: expressed in transfected cells; host or cells: CV-1 (African green monkey kidney fibroblasts)
T2 sequence (P10276 1-462): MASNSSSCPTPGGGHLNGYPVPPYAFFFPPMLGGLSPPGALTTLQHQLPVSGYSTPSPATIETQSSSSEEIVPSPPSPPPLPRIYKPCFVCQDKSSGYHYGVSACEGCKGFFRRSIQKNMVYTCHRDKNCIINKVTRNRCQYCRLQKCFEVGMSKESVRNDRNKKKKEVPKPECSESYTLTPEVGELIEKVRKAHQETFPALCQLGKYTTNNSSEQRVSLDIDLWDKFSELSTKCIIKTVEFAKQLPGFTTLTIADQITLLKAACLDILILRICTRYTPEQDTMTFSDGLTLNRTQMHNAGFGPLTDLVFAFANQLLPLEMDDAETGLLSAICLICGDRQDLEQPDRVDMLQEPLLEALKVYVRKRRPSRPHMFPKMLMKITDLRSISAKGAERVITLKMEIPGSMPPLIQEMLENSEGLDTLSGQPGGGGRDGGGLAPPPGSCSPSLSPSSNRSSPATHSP

RXRγ = target: T3, RXRγ (Mus musculus, UniProt P28705); test: Co-transfection assay, RXRγ agonist activity; settings: CV-1 cells, 40 hours; read-out: RXRγ Pot (potency, EC50)
T3 construct: expressed in transfected cells; host or cells: CV-1 (African green monkey kidney fibroblasts)
T3 sequence (P28705 1-463): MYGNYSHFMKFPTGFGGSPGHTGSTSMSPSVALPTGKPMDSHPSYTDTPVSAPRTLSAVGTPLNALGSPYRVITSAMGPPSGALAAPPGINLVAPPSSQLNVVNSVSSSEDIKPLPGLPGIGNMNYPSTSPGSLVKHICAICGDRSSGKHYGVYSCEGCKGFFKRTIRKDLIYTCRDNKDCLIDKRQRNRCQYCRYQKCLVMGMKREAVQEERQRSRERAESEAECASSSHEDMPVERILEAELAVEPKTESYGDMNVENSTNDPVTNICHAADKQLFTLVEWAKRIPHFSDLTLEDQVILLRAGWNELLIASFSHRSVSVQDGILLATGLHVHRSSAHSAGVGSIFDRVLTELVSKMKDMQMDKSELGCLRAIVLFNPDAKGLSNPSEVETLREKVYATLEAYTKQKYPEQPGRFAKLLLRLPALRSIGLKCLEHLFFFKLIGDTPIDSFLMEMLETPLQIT

RARβ = target: T4, RARβ (Homo sapiens, UniProt P10826); test: Co-transfection assay, RARβ agonist activity; settings: CV-1 cells, 40 hours; read-out: RARβ Pot (potency, EC50)
T4 construct: expressed in transfected cells; host or cells: CV-1 (African green monkey kidney fibroblasts)
T4 sequence (P10826 1-448 isoform P10826-2): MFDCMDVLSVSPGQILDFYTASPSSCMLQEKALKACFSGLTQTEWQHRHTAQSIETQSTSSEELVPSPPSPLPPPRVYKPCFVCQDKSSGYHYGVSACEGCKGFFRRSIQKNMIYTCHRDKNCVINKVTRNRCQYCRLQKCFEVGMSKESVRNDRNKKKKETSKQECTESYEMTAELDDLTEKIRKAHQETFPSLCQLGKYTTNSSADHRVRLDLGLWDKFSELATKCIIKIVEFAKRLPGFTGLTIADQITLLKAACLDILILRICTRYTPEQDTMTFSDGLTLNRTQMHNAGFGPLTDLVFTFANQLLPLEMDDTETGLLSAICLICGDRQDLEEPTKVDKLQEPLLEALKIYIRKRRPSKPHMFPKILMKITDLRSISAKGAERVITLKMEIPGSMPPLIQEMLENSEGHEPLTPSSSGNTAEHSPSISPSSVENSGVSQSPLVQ

RARγ = target: T5, RARγ (Homo sapiens, UniProt P13631); test: Co-transfection assay, RARγ agonist activity; settings: CV-1 cells, 40 hours; read-out: RARγ Pot (potency, EC50)
T5 construct: expressed in transfected cells; host or cells: CV-1 (African green monkey kidney fibroblasts)
T5 sequence (P13631 1-454): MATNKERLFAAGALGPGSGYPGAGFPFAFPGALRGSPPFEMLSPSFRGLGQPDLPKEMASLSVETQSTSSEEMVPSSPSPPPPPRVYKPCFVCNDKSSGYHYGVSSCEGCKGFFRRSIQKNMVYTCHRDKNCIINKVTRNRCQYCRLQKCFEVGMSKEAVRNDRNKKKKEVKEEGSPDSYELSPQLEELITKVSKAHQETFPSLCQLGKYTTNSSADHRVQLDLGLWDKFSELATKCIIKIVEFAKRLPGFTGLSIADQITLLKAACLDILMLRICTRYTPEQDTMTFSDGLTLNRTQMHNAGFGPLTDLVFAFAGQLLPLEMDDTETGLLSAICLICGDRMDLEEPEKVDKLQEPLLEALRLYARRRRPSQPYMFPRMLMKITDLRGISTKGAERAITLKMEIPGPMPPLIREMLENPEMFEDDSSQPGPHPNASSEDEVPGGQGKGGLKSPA

Question: Which results are given for `CC(/C=C/C=C1/CC(C)(C)Oc2cc3c(cc21)C(C)(C)CCC3(C)C)=C\C(=O)O` [Compound 104b, (2E,4E)-3-Methyl-6-(2,3,6,7,8,9-hexahydro-2,2,6,6,9,9-hexamethylbenzo[b]-chromen-4-ylidene)-hexa-2,4-dienoic acid]?
Answer: EC50 (RXRα): 18 nM; EC50 (RARα): > 10000 nM; EC50 (RXRγ): 11 nM; EC50 (RARβ): 61 nM; EC50 (RARγ): 83 nM
